# From patent US9636365B2, “Antibacterial food composition” (NUTRIVERCELL, priority 2009, dated 2017)
# Read-outs that look alike come from different tables or passages of the source.
# Experiments:
# [1] = Quantification of propolis polyphenols in human urines after ingesting the composition; format: in vivo
# Procedure: Two healthy volunteers of more than 18 years of age, with efficient contraception and having followed a normal diet, followed a regimen comprising the ingestion of gelatin capsules according to the composition of Example 3.
# Two regimens were followed: • taking 6 gelatin capsules, • taking 8 gelatin capsules.
# The taking of gelatin capsules was carried out at 8.00 am and the urines were collected by micturition in a sterile flask before ingestion, 1-6 hours after ingestion, 12 hours after ingestion and 24 hours after ingestion.
# The collected urines are hydrolyzed by enzymatic hydrolysis (glucuronidase and sulfatase), and the polyphenols are then extracted and purified on Sep-Pack.
# The polyphenols of propolis such as pinocembrin and galangin are then characterized and assayed.
# [2] = system: E. coli strain resistant to quinolones (OFX R), NECS858785; test: MIC, dilution in liquid medium (CA-SFM), first OFX R strain; format: cell-based, Escherichia coli; details: added composition at sub-inhibitory concentration (120 or 250 mg/L), 18 h, 37° C.
# From the text: (§1) Six strains of Escherichia coli of different origins (cystitises, acute pyelonephritises, urinary chronic carriage), of different sensitivities to the main antibiotics customarily used in urinary infections and with different virulences, were selected from the strain library of the laboratory of the INSERM Espri 26 team: • 2 strains sensitive to ATBs: NECS892841 and NECS30090 • 2 strains resistant to quinolones: NECS858785 and NECS864598 • 2 strains secreting BLSE: NEC892420 and NEC118564
# (§2) Three compositions were evaluated: • a composition comprising propolis powder on maltose dextrin • a composition comprising propolis powder on maltose dextrin and PACs of type A • a composition comprising maltose dextrin
# (§3) Three antibiotics were studied: • ofloxacin • ceftriaxone • cefixime
# (§4) The whole of the tubes were put into an oven at 37° C. overnight without stirring.
# [3] = system: E. coli strain sensitive to ATBs (S), NECS30090; test: MIC, dilution in liquid medium (CA-SFM), second S strain; format: cell-based, Escherichia coli; details: second S strain row; added composition at sub-inhibitory concentration (120 or 250 mg/L); 18 h, 37° C.
# From the text: as §1, §2, §3, §4
# [4] = system: E. coli strain secreting BLSE, NEC892420; test: MIC, dilution in liquid medium (CA-SFM), first BLSE strain; format: cell-based, Escherichia coli; details: added composition at sub-inhibitory concentration (120 or 250 mg/L), 18 h, 37° C.
# From the text: as §1, §2, §3, §4
# [5] = system: E. coli strain sensitive to ATBs (S), NECS892841; test: MIC, dilution in liquid medium (CA-SFM), first S strain; format: cell-based, Escherichia coli; details: added composition at sub-inhibitory concentration (120 or 250 mg/L), 18 h, 37° C.
# From the text: as §1, §2, §3, §4
# [6] = system: E. coli strain resistant to quinolones (OFX R), NECS864598; test: MIC, dilution in liquid medium (CA-SFM), second OFX R strain; format: cell-based, Escherichia coli; details: added composition at sub-inhibitory concentration (120 or 250 mg/L), 18 h, 37° C.
# From the text: as §1, §2, §3, §4
# [7] = system: E. coli strain secreting BLSE, NEC118564; test: MIC, dilution in liquid medium (CA-SFM), second BLSE strain; format: cell-based, Escherichia coli; details: added composition at sub-inhibitory concentration (120 or 250 mg/L), 18 h, 37° C.
# From the text: as §1, §2, §3, §4
MIC of the antibiotic [2],MIC of the antibiotic [3],MIC of the antibiotic [4],MIC of the antibiotic [5],MIC of the antibiotic [6],MIC of the antibiotic [7],"amount in human urines ([1]; human, in vivo)","concentration at 12 h ([1]; human, in vivo, amount in human urines)",SMILES,"amount in human urines ([1]; 1-6 h after ingestion of 6 gelatin capsules of Example 3, urine hydrolyzed)","concentration at 12 h ([1]; human, in vivo, 12 h after ingestion of 6 gelatin capsules of Example 3, read-out: amount in human urines)","concentration at 24 h ([1]; human, in vivo, 24 h after ingestion of 6 gelatin capsules of Example 3, read-out: amount in human urines)","concentration at 24 h ([1]; human, in vivo, 24 h after ingestion of 8 gelatin capsules of Example 3, read-out: amount in human urines)"
–,–,–,–,–,–,–,–,"O=c1c(O)c(-c2ccccc2)oc2cc(O)cc(O)c12 [Galangin, galangin]",0.555 mg/L,291 ng/mL,157 ng/mL,311 ng/mL
0.5 µg/mL,0.5 µg/mL,16 µg/mL,1 µg/mL,1 µg/mL,8 µg/mL,–,–,"C=CC1=C(C(=O)O)N2C(=O)[C@@H](NC(=O)/C(=N\OCC(=O)O)c3csc(N)n3)[C@H]2SC1 [Cefixime, cefixime]",–,–,–,–
–,–,–,–,–,–,3.344 mg/L,1140 ng/mL,"O=C1C[C@@H](c2ccccc2)Oc2cc(O)cc(O)c21 [Pinocembrin, pinocembrin]",–,–,–,–
0.25 µg/mL,0.5 µg/mL,>32 µg/mL,1 µg/mL,0.5 µg/mL,32 µg/mL,–,–,"CO/N=C(\C(=O)N[C@@H]1C(=O)N2C(C(=O)O)=C(CSc3nc(=O)c(O)nn3C)CS[C@H]12)c1csc(N)n1 [Ceftriaxon, ceftriaxone]",–,–,–,–
2 µg/mL,0.25 µg/mL,>32 µg/mL,1 µg/mL,32 µg/mL,>32 µg/mL,–,–,"CC1COc2c(N3CCN(C)CC3)c(F)cc3c(=O)c(C(=O)O)cn1c23 (stereo not drawn) [Ofloxacin, ofloxacin]",–,–,–,–
